Among the data in PubChem BioAssay AID1259407 (Chemical Carcinogenesis Research Information System (CCRIS), 2018) are mutagenic call values, retold here.

Calls of active or inactive are those of the source. The rule behind the calls is not given here.

The series concerns CCRIS mutagenicity, Ames/micronucleus/aberration tests. As to the kind of experiment: CCRIS mutagenicity studies.
Where [1] appears, read: Test System: AMES SALMONELLA TYPHIMURIUM, Strain/Indicator: TA98, Metabolic Activation: NONE, Method: PREINCUBATION
Setting [2] is: Test System: AMES SALMONELLA TYPHIMURIUM, Strain/Indicator: TA98, Metabolic Activation: NONE, Method: STANDARD PLATE.
Where [3] appears, read: Test System: AMES SALMONELLA TYPHIMURIUM, Strain/Indicator: TA98, Metabolic Activation: RAT, LIVER, S-9, AROCLOR 1254, Method: STANDARD PLATE.
Where [4] appears, read: Test System: AMES SALMONELLA TYPHIMURIUM, Strain/Indicator: TA100, Metabolic Activation: NONE, Method: PREINCUBATION
Where [5] appears, read: Test System: AMES SALMONELLA TYPHIMURIUM, Strain/Indicator: TA100, Metabolic Activation: NONE, Method: STANDARD PLATE.
Where [6] appears, read: Test System: AMES SALMONELLA TYPHIMURIUM, Strain/Indicator: TA100, Metabolic Activation: RAT, LIVER, S-9, AROCLOR 1254, Method: STANDARD PLATE.

Take `Nc1ccc(N=Nc2ccccc2)cc1`: the mutagenic call (Test System: AMES SALMONELLA TYPHIMURIUM, Strain/Indicator: TA98, Metabolic Activation: HAMSTER, LIVER, S-9, AROCLOR 1254 (30%), Method: PREINCUBATION) is “active; positive”; the mutagenic call under setting [1] is “inactive; negative”; the mutagenic call under setting [2] was “inactive; negative”; the mutagenic call (Test System: AMES SALMONELLA TYPHIMURIUM, Strain/Indicator: TA98, Metabolic Activation: RAT, LIVER, MICROSOMES, 4-AMINOAZOBENZENE, Method: PREINCUBATION) was “inactive; negative”; the mutagenic call (Test System: AMES SALMONELLA TYPHIMURIUM, Strain/Indicator: TA98, Metabolic Activation: RAT, LIVER, MICROSOMES, AROCLOR 1254, Method: PREINCUBATION) is “inactive; negative”; the mutagenic call (Test System: AMES SALMONELLA TYPHIMURIUM, Strain/Indicator: TA98, Metabolic Activation: RAT, LIVER, MICROSOMES, Method: PREINCUBATION) was “inactive; negative”. Besides, the mutagenic call is “active; positive” (Test System: AMES SALMONELLA TYPHIMURIUM, Strain/Indicator: TA98, Metabolic Activation: RAT, LIVER, S-9, AROCLOR 1254 (30%), Method: PREINCUBATION); “active; positive” under setting [3]; “active; positive” (Test System: AMES SALMONELLA TYPHIMURIUM, Strain/Indicator: TA98, Metabolic Activation: RAT, LIVER, S-9, KC500 OR PHENOBARBITAL, Method: LIQUID SUSPENSION); “active; positive” (Test System: AMES SALMONELLA TYPHIMURIUM, Strain/Indicator: TA98, Metabolic Activation: RAT, LIVER, S-9, PCB, Method: PREINCUBATION); “active; positive” (Test System: AMES SALMONELLA TYPHIMURIUM, Strain/Indicator: TA100, Metabolic Activation: HAMSTER, LIVER, S-9, AROCLOR 1254 (30%), Method: PREINCUBATION); “inactive; negative” under setting [4]. Moreover, the mutagenic call is, setting by setting: under setting [5], “inactive; negative”; (Test System: AMES SALMONELLA TYPHIMURIUM, Strain/Indicator: TA100, Metabolic Activation: RAT, LIVER, S-9, AROCLOR 1254 (30%), Method: PREINCUBATION) “inactive; negative”; under setting [6], “active; positive”; (Test System: AMES SALMONELLA TYPHIMURIUM, Strain/Indicator: TA100, Metabolic Activation: RAT, LIVER, S-9, KC500 OR PHENOBARBITAL, Method: LIQUID SUSPENSION) “active; positive”; (Test System: AMES SALMONELLA TYPHIMURIUM, Strain/Indicator: TA100, Metabolic Activation: RAT, LIVER, S-9, PCB, Method: PREINCUBATION) “active; positive”; (Test System: AMES SALMONELLA TYPHIMURIUM, Strain/Indicator: TA1538, Metabolic Activation: RAT, LIVER, S-9, AROCLOR 1254, Method: STANDARD PLATE) “active; positive”. Moreover, the mutagenic call (Test System: UDS RODENT HEPATOCYTES, Strain/Indicator: THY INCORP (NON-S-PHASE), Method: AUTORADIOGRAPHY) is “active; positive”.

Take `COc1ccc(-c2noc(CC(=O)O)c2-c2ccc(OC)cc2)cc1`: the mutagenic call is “inactive; negative” under setting [1]; “inactive; negative” (Test System: AMES SALMONELLA TYPHIMURIUM, Strain/Indicator: TA98, Metabolic Activation: RAT, LIVER, S-9, PHENOBARBITAL AND 5,6-BENZOFLAVONE, Method: PREINCUBATION); “inactive; negative” under setting [4]; “inactive; negative” (Test System: AMES SALMONELLA TYPHIMURIUM, Strain/Indicator: TA100, Metabolic Activation: RAT, LIVER, S-9, PHENOBARBITAL AND 5,6-BENZOFLAVONE, Method: PREINCUBATION); “inactive; negative” (Test System: AMES SALMONELLA TYPHIMURIUM, Strain/Indicator: TA1535, Metabolic Activation: NONE, Method: PREINCUBATION); “inactive; negative” (Test System: AMES SALMONELLA TYPHIMURIUM, Strain/Indicator: TA1535, Metabolic Activation: RAT, LIVER, S-9, PHENOBARBITAL AND 5,6-BENZOFLAVONE, Method: PREINCUBATION). Besides, the mutagenic call is “inactive; negative” (Test System: AMES SALMONELLA TYPHIMURIUM, Strain/Indicator: TA1537, Metabolic Activation: NONE, Method: PREINCUBATION); “inactive; negative” (Test System: AMES SALMONELLA TYPHIMURIUM, Strain/Indicator: TA1537, Metabolic Activation: RAT, LIVER, S-9, PHENOBARBITAL AND 5,6-BENZOFLAVONE, Method: PREINCUBATION); “inactive; negative” (Test System: E. COLI, Strain/Indicator: WP2 UVRA, Metabolic Activation: NONE, Method: PREINCUBATION); “inactive; negative” (Test System: E. COLI, Strain/Indicator: WP2 UVRA, Metabolic Activation: RAT, LIVER, S-9, PHENOBARBITAL AND 5,6-BENZOFLAVONE, Method: PREINCUBATION).

`CC(=O)OCc1cocc2c(C=O)ccc1-2`: the mutagenic call is “active; positive” under setting [2]; “active; positive” under setting [3]; “active; positive” under setting [5]; “active; positive” under setting [6]; “inactive; negative” (Test System: AMES SALMONELLA TYPHIMURIUM, Strain/Indicator: TA1535, Metabolic Activation: NONE, Method: STANDARD PLATE); “inactive; negative” (Test System: AMES SALMONELLA TYPHIMURIUM, Strain/Indicator: TA1535, Metabolic Activation: RAT, LIVER, S-9, AROCLOR 1254, Method: STANDARD PLATE). For the same compound, the mutagenic call (Test System: AMES SALMONELLA TYPHIMURIUM, Strain/Indicator: TA1537, Metabolic Activation: NONE, Method: STANDARD PLATE) was “inactive; negative” and the mutagenic call (Test System: AMES SALMONELLA TYPHIMURIUM, Strain/Indicator: TA1537, Metabolic Activation: RAT, LIVER, S-9, AROCLOR 1254, Method: STANDARD PLATE) is “inactive; negative”.

As for `O=[N+]([O-])c1ccc2c(c1)-c1ccc([N+](=O)[O-])c3cccc-2c13`, the mutagenic call was “active; positive” (Test System: AMES SALMONELLA TYPHIMURIUM, Strain/Indicator: TA97, Metabolic Activation: NONE); “active; positive” (Test System: AMES SALMONELLA TYPHIMURIUM, Strain/Indicator: TA98(1,8-DNP6), Metabolic Activation: NONE); “active; positive” (Test System: AMES SALMONELLA TYPHIMURIUM, Strain/Indicator: TA98(NR), Metabolic Activation: NONE); “active; positive” (Test System: AMES SALMONELLA TYPHIMURIUM, Strain/Indicator: TA98, Metabolic Activation: NONE); “active; positive” (Test System: AMES SALMONELLA TYPHIMURIUM, Strain/Indicator: TA100, Metabolic Activation: NONE); “inactive; negative” (Test System: AMES SALMONELLA TYPHIMURIUM, Strain/Indicator: TA1535, Metabolic Activation: NONE). Further, the mutagenic call (Test System: AMES SALMONELLA TYPHIMURIUM, Strain/Indicator: TA1537, Metabolic Activation: NONE) is “active; positive”; the mutagenic call (Test System: AMES SALMONELLA TYPHIMURIUM, Strain/Indicator: TA1538, Metabolic Activation: NONE) is “active; positive”; the mutagenic call (Test System: AMES SALMONELLA TYPHIMURIUM, Strain/Indicator: TA1978, Metabolic Activation: NONE) was “active; positive”.

Regarding `FC(Cl)C(F)(F)F` (centres undefined), the mutagenic call (Test System: AMES SALMONELLA TYPHIMURIUM, Strain/Indicator: TA97, Metabolic Activation: NONE, Method: VAPOR CHAMBER) is “inactive; negative”; the mutagenic call (Test System: AMES SALMONELLA TYPHIMURIUM, Strain/Indicator: TA97, Metabolic Activation: RAT LIVER S-9, Method: VAPOR CHAMBER) was “inactive; negative”; the mutagenic call (Test System: AMES SALMONELLA TYPHIMURIUM, Strain/Indicator: TA98, Metabolic Activation: NONE, Method: VAPOR CHAMBER) is “inactive; negative”; the mutagenic call (Test System: AMES SALMONELLA TYPHIMURIUM, Strain/Indicator: TA98, Metabolic Activation: RAT LIVER S-9, Method: VAPOR CHAMBER) was “inactive; negative”; the mutagenic call (Test System: AMES SALMONELLA TYPHIMURIUM, Strain/Indicator: TA100, Metabolic Activation: NONE, Method: VAPOR CHAMBER) was “inactive; negative”; the mutagenic call (Test System: AMES SALMONELLA TYPHIMURIUM, Strain/Indicator: TA100, Metabolic Activation: RAT LIVER S-9, Method: VAPOR CHAMBER) is “inactive; negative”. In addition, the mutagenic call by setting is: (Test System: AMES SALMONELLA TYPHIMURIUM, Strain/Indicator: TA1535, Metabolic Activation: NONE, Method: VAPOR CHAMBER) “inactive; negative”; (Test System: AMES SALMONELLA TYPHIMURIUM, Strain/Indicator: TA1535, Metabolic Activation: RAT LIVER S-9, Method: VAPOR CHAMBER) “inactive; negative”.
